{
  "source": "PubChem BioAssay AID2253",
  "about": "(Southern Research Specialized Biocontainment Screening …, 2010)",
  "system": "THP-1 viability, CellTiter-Glo luminescence, 72 h",
  "assay": "human monocytic cell viability reduction – S. typhimurium screen hits, cytotoxicity control for Salmonella PhoP regulon inhibitors, dose response (AID 2253)",
  "data": [
    {"smiles": "COc1ccc(/C=N/Nc2cc(C)nc3ccccc23)cc1", "values": [
      {"measurement": "EC50", "value": 7.59, "unit": "µM"}
    ]},
    {"smiles": "CC1(C)CC(=O)C2=C(C1)OC1=C(C(=O)CC(C)(C)C1)C2c1ccc(O)cc1O", "values": [
      {"measurement": "EC50", "value": 5.36, "unit": "µM"}
    ]},
    {"smiles": "Oc1cccc(Nc2nc(NCC3CCCO3)c3ccccc3n2)c1", "note": "(stereo not given)", "values": [
      {"measurement": "EC50", "value": 2.26, "unit": "µM"}
    ]},
    {"smiles": "CSc1ccc2c(c1)C(N1CCN(C)CC1)Cc1ccccc1S2", "note": "(stereo not given)", "values": [
      {"measurement": "EC50", "value": 10.6, "unit": "µM"}
    ]},
    {"smiles": "Cc1cc(C)c2ccc(N)nc2c1O", "values": [
      {"measurement": "EC50", "value": 2.91, "unit": "µM"}
    ]},
    {"smiles": "Oc1ccc(N=Cc2ccc(O)c(O)c2)cc1", "values": [
      {"measurement": "EC50", "value": 7.64, "unit": "µM"}
    ]},
    {"smiles": "CCOc1ccc(CSC(=N)N)cc1[N+](=O)[O-]", "values": [
      {"measurement": "EC50", "value": 20.4, "unit": "µM"}
    ]},
    {"smiles": "c1ccc(Nc2ccnc(Nc3ccccc3)n2)cc1", "values": [
      {"measurement": "EC50", "value": 35, "unit": "µM"}
    ]},
    {"smiles": "CC1CCC(C(C)C)C(OC(=O)Cn2c(COc3ccccc3)[n+](C)c3ccccc32)C1", "note": "(stereo not given)", "values": [
      {"measurement": "EC50", "value": 2.6, "unit": "µM"}
    ]},
    {"smiles": "CCN(CC)S(=O)(=O)c1cccc(NC(=O)Nc2cccc(C(F)(F)F)c2)c1", "values": [
      {"measurement": "EC50", "value": 5.09, "unit": "µM"}
    ]},
    {"smiles": "CCOc1ccc(-n2c(SCc3nc(-c4ccc(C)cc4)no3)nnc2-c2ccncc2)cc1", "values": [
      {"measurement": "EC50", "value": 28.3, "unit": "µM"}
    ]},
    {"smiles": "CCCCCOc1ccc(CSC(=N)N)cc1[N+](=O)[O-]", "values": [
      {"measurement": "EC50", "value": 7.91, "unit": "µM"}
    ]},
    {"smiles": "NC(=NCCc1c[nH]c2ccccc12)NC(=O)c1ccc(F)cc1", "values": [
      {"measurement": "EC50", "value": 36.4, "unit": "µM"}
    ]},
    {"smiles": "CC1CCC(C(C)C)C(OC(=O)Cn2c(-c3ccc(Cl)cc3)[n+](C)c3ccccc32)C1", "note": "(stereo not given)", "values": [
      {"measurement": "EC50", "value": 2.13, "unit": "µM"}
    ]},
    {"smiles": "c1ccc(CN2CCN(c3nc(NCc4ccco4)c4ccccc4n3)CC2)cc1", "values": [
      {"measurement": "EC50", "value": 20.6, "unit": "µM"}
    ]},
    {"smiles": "c1ccc2c(C3=NNC(=NC4CC4)SC3)c[nH]c2c1", "values": [
      {"measurement": "EC50", "value": 17.2, "unit": "µM"}
    ]},
    {"smiles": "CCCNC1=C(C)C(=O)C2=C(C1=O)C(COC(N)=O)[C@]1(OC)C3NC3CN21", "note": "(stereo not given in full)", "values": [
      {"measurement": "EC50", "value": 10.1, "unit": "µM"}
    ]},
    {"smiles": "O=C1c2ccccc2NC(c2ccc(-c3cccc(Cl)c3)o2)N1O", "note": "(stereo not given)", "values": [
      {"measurement": "EC50", "value": 24.6, "unit": "µM"}
    ]},
    {"smiles": "N#CC(C#N)=c1ccc2c(c1)NC1(CCCCC1)N=2", "values": [
      {"measurement": "EC50", "value": 4.08, "unit": "µM"}
    ]},
    {"smiles": "O=C(CSc1nc(Nc2ccccc2)nc(N2CCOCC2)n1)Nc1ccc([N+](=O)[O-])cc1", "values": [
      {"measurement": "EC50", "value": 37.1, "unit": "µM"}
    ]},
    {"smiles": "Nc1nonc1-n1nnc(C(=O)N/N=C/c2cc(Br)ccc2O)c1CSC1=NCCS1", "values": [
      {"measurement": "EC50", "value": 1.54, "unit": "µM"}
    ]},
    {"smiles": "C#CCOCCOCCOCCNc1nc(N2CCN(C(=O)CCCCCCCCCCNC(=O)[C@H]([C@@H](C)CC)n3cc(CCCCN=C(N)N)nn3)CC2)nc(N2CCN(C(=O)CCCCCCCCCCNC(=O)[C@H](CCCN=C(N)N)n3cc(C[C@@H](C)CC)nn3)CC2)n1", "values": [
      {"measurement": "EC50", "value": 3.57, "unit": "µM"}
    ]},
    {"smiles": "CC1(C)CC(=O)C2=C(C1)N(c1ccc(F)cc1)C(N)=C(C#N)C2c1cccs1", "note": "(stereo not given)", "values": [
      {"measurement": "EC50", "value": 35.6, "unit": "µM"}
    ]},
    {"smiles": "COc1ccc(Nc2cc(C)c3c(O)cccc3n2)cc1", "values": [
      {"measurement": "EC50", "value": 15, "unit": "µM"}
    ]},
    {"smiles": "OC(COc1ccc2ccccc2c1Br)Cn1ccnc1", "note": "(stereo not given)", "values": [
      {"measurement": "EC50", "value": 43.9, "unit": "µM"}
    ]},
    {"smiles": "CSc1ccc(C(=O)/C=C/c2ccc(N)cc2)cc1", "values": [
      {"measurement": "EC50", "value": 21.7, "unit": "µM"}
    ]},
    {"smiles": "CC(C)NC1=C(Cl)C(=O)c2ccccc2C1=O", "values": [
      {"measurement": "EC50", "value": 18.9, "unit": "µM"}
    ]},
    {"smiles": "COc1cccc(-n2c(SCc3cc(=O)oc4cc(O)c(O)cc34)nc3ccccc3c2=O)c1", "values": [
      {"measurement": "EC50", "value": 15.1, "unit": "µM"}
    ]},
    {"smiles": "CC[n+]1c(/C=C/N(C)c2ccccc2)n(-c2ccccc2)c2ccc(-c3nc4ccccc4s3)cc21", "values": [
      {"measurement": "EC50", "value": 0.46, "unit": "µM"}
    ]},
    {"smiles": "N/C(=N/OC(=O)c1ccccc1Cl)c1ncc([N+](=O)[O-])s1", "values": [
      {"measurement": "EC50", "value": 18.8, "unit": "µM"}
    ]},
    {"smiles": "NC1=NC(=Nc2ccc(Cl)cc2)c2ccccc21", "values": [
      {"measurement": "EC50", "value": 22.4, "unit": "µM"}
    ]},
    {"smiles": "O=[N+]([O-])c1cc(Cl)c(O)c2ncccc12", "values": [
      {"measurement": "EC50", "value": 15, "unit": "µM"}
    ]},
    {"smiles": "Cc1cc(C(=O)NNC(=S)NC(=O)/C=C/c2ccccc2Cl)n[nH]1", "values": [
      {"measurement": "EC50", "value": 23.6, "unit": "µM"}
    ]},
    {"smiles": "CCCCCCCNC(=O)C1(CC2CC(c3cccc(Br)c3)=NO2)CCNCC1", "note": "(stereo not given)", "values": [
      {"measurement": "EC50", "value": 4.13, "unit": "µM"}
    ]},
    {"smiles": "Oc1ccc(NCc2ccccc2OCc2ccccc2F)cc1", "values": [
      {"measurement": "EC50", "value": 19.9, "unit": "µM"}
    ]},
    {"smiles": "CCCCCCCCCCOC(=O)Cn1c(COc2ccccc2OC)[n+](C)c2ccccc21", "values": [
      {"measurement": "EC50", "value": 2.2, "unit": "µM"}
    ]},
    {"smiles": "CCOc1cc(/C=C2/NC(=O)N(CC(=O)Nc3cccc(C)c3)C2=O)ccc1OC", "values": [
      {"measurement": "EC50", "value": 30.8, "unit": "µM"}
    ]},
    {"smiles": "CCN(CC(=O)NC(C)(C)C)C(=O)COc1c(Cl)cc(Cl)c2ccc(C)nc12", "values": [
      {"measurement": "EC50", "value": 37.3, "unit": "µM"}
    ]},
    {"smiles": "COc1ccc(NC2=NC3(CCCCC3)N=C(N)N2)cc1", "values": [
      {"measurement": "EC50", "value": 35.1, "unit": "µM"}
    ]},
    {"smiles": "CN(C)c1ccc(O)c2c1CC1CC3[C@@H](N(C)C)C(=O)C(C(N)=O)=C(O)[C@]3(O)C(=O)C1=C2O", "note": "(stereo not given in full)", "values": [
      {"measurement": "EC50", "value": 37, "unit": "µM"}
    ]},
    {"smiles": "C=CCN(C(=O)c1cccc(S(=O)(=O)N2CCN(C)CC2)c1)c1nc(-c2ccccc2)cs1", "values": [
      {"measurement": "EC50", "value": 49.4, "unit": "µM"}
    ]},
    {"smiles": "O=[N+]([O-])c1ccc(O)c(/C=N/Nc2ccccn2)c1", "values": [
      {"measurement": "EC50", "value": 0.42, "unit": "µM"}
    ]},
    {"smiles": "O=C(N/N=C/c1cn(-c2ccccc2)nc1-c1ccc(F)cc1)c1ccc2c(c1)OCO2", "values": [
      {"measurement": "EC50", "value": 35, "unit": "µM"}
    ]},
    {"smiles": "O=C1OC(/C(=C\\Nc2ccc(F)cc2F)[N+](=O)[O-])c2ccccc21", "note": "(stereo not given)", "values": [
      {"measurement": "EC50", "value": 31.7, "unit": "µM"}
    ]},
    {"smiles": "COc1ccccc1-c1c(C#N)c(N)nc2c1CCc1ccccc1-2", "values": [
      {"measurement": "EC50", "value": 13.2, "unit": "µM"}
    ]},
    {"smiles": "Cc1ccc(S(=O)(=O)c2c(C(=O)c3ccccc3)cnc3cc4c(cc23)OCCO4)cc1", "values": [
      {"measurement": "EC50", "value": 30.2, "unit": "µM"}
    ]},
    {"smiles": "Cc1ccc(/C=C/C(=O)c2ccccc(=O)c2O)cc1C", "values": [
      {"measurement": "EC50", "value": 17.2, "unit": "µM"}
    ]},
    {"smiles": "Cc1[nH]n(-c2ncc(-c3ccc(Cl)cc3)s2)c(=O)c1C(c1ccc(Cl)cc1)C(C#N)C#N", "note": "(stereo not given)", "values": [
      {"measurement": "EC50", "value": 45, "unit": "µM"}
    ]},
    {"smiles": "Nc1cc2nsnc2cc1Br", "values": [
      {"measurement": "EC50", "value": 7.44, "unit": "µM"}
    ]},
    {"smiles": "Cc1nc2c(=O)n(C)c(=O)n(C)c2nc1Cl", "values": [
      {"measurement": "EC50", "value": 7.48, "unit": "µM"}
    ]},
    {"smiles": "CCOC(=O)Cc1csc(NC(=O)NC2(C(F)(F)F)Oc3cc(Cl)c(Cl)cc3O2)n1", "values": [
      {"measurement": "EC50", "value": 26, "unit": "µM"}
    ]},
    {"smiles": "COc1ccc(C(=O)N/N=C/c2sc3ccccc3c2O)cc1", "values": [
      {"measurement": "EC50", "value": 3.13, "unit": "µM"}
    ]},
    {"smiles": "CCCOc1ccc(C(=O)C(CCC(CNCC)C(=O)c2ccc(OCCC)cc2)CNCC)cc1", "note": "(stereo not given)", "values": [
      {"measurement": "EC50", "value": 1.58, "unit": "µM"}
    ]},
    {"smiles": "CN(C)S(=O)(=O)c1cccc(NC(=S)N/N=C/c2cc(Br)ccc2O)c1", "values": [
      {"measurement": "EC50", "value": 0.65, "unit": "µM"}
    ]},
    {"smiles": "CN1/C(=C\\C=N\\NC(=O)c2ccccc2Br)C(C)(C)c2ccccc21", "values": [
      {"measurement": "EC50", "value": 32.2, "unit": "µM"}
    ]}
  ]
}
